Test results reported in US20250002695A1, “COMPOSITIONS COMPRISING CATIONIC ALPHA-1,6-GLUCAN DERIVATIVE AND ALPHA-1,3-GLUCAN” (Nutrition & Biosciences USA 4, Inc., priority 2021, published 2025).
In brackets after ≈: the same amount, converted by molar mass. Read-outs that look alike come from different tables or passages of the source.

What was measured:
Test in all cases: Minimum Inhibitory Concentration (MIC) test
Assay type in all cases: cell-based
[1] = tested on: Aspergillus brasiliensis (ATCC 16404); details: ATCC16404, 168 h, read-out: Minimum Inhibitory Concentration
Description: (§1) Antimicrobial activity assessment of alpha-1,6-glucan ether compounds herein and other compounds were carried out using a standard MIC protocol. Each test compound was evaluated in two sets, one at 50-5000 ppm (high MIC actives) and the other at 3.125-100 ppm (low MIC actives). All active samples, with the exception of chitosan, were dissolved in DI water at a concentration of 1% w/v for the […] set; chitosan was instead dissolved in water acidified to pH 3.5 with hydrochloric acid. Each test compound was then serially diluted to concentrations of 0.4%, 0.2%, 0.1%, 0.04%, 0.02% and 0.01% (w/v). For the 3.125-100 ppm set, all test compounds were prepared similarly at a concentration 0.1% w/v, and then serially diluted to concentrations of 0.05%, 0.025%, 0.0125%, 0.00625% and 0.003125% (w/v). Bacteria inocula were prepared by diluting overnight cultures 1:20 in trypticase soy broth media (TSB). Yeast and mold were prepared by diluting overnight culture or monthly stock (1×10^8 cells per mL) 1:20 in potato dextrose broth media (PDB). 96-well plates were used in this test. First, 180 μL of plating media was added to each well. Next, each well received 20 μL water (control) or test compound at a specified concentration according to concentration range to be tested. Each sample was tested in triplicate. Lastly, each well received 20 μL of bacteria or fungi inoculum. Bacterial plates were incubated at 30° C. for 24 hours. Yeast and mold plates were incubated at 25° C.; yeast plates were incubated for 24 hours and mold plates were incubated for 7 days.

[2] = tested on: Burkholderia cepacia (ATCC 25416); details: read-out: Minimum Inhibitory Concentration
Description: as §1

[3] = tested on: Candida albicans (ATCC 10231); details: read-out: Minimum Inhibitory Concentration
Description: as §1

[4] = tested on: Enterobacter gergoviae (ATCC 33028); details: Pluralibacter gergoviae, read-out: Minimum Inhibitory Concentration
Description: as §1

[5] = tested on: Escherichia coli (ATCC 8739); details: read-out: Minimum Inhibitory Concentration
Description: as §1

[6] = tested on: Klebsiella pneumoniae (ATCC 13883); details: read-out: Minimum Inhibitory Concentration
Description: as §1

[7] = tested on: Pseudomonas aeruginosa (ATCC 15442); details: read-out: Minimum Inhibitory Concentration
Description: as §1

[8] = tested on: Pseudomonas aeruginosa (ATCC 9027); details: read-out: Minimum Inhibitory Concentration
Description: as §1

[9] = tested on: Pseudomonas putida (ATCC 49128); details: read-out: Minimum Inhibitory Concentration
Description: as §1

[10] = tested on: Staphylococcus aureus (ATCC 6538); details: read-out: Minimum Inhibitory Concentration
Description: as §1

[11] = tested on: Staphylococcus epidermidis (ATCC 12228); details: read-out: Minimum Inhibitory Concentration
Description: as §1

CCCCCCCCCCCC(=O)N[C@@H](CCCNC(=N)N)C(=O)OCC [Comp. 13, Lauroyl arginine ethyl ester]
MIC ([1]; A. brasiliensis ATCC 16404, 25° C., 7 days): 100 µg/mL (≈ 260 µM)
MIC ([2]; ATCC25416, B. cepacia ATCC 25416, 30° C., 24 hours): 100 µg/mL (≈ 260 µM)
MIC ([3]; ATCC10231, C. albicans ATCC 10231, 25° C., 24 hours): 100 µg/mL (≈ 260 µM)
MIC ([4]; ATCC33028, E. gergoviae ATCC 33028, 30° C., 24 hours): 100 µg/mL (≈ 260 µM)
MIC ([5]; ATCC8739, E. coli ATCC 8739, 30° C., 24 hours): 50 µg/mL (≈ 130 µM)
MIC ([6]; ATCC13883, K. pneumoniae ATCC 13883, 30° C., 24 hours): 50 µg/mL (≈ 130 µM)
MIC ([7]; ATCC15442, P. aeruginosa ATCC 15442, 30° C., 24 hours): 50 µg/mL (≈ 130 µM)
MIC ([8]; ATCC9027, P. aeruginosa ATCC 9027, 30° C., 24 hours): 50 µg/mL (≈ 130 µM)
MIC ([9]; ATCC49128, P. putida ATCC 49128, 30° C., 24 hours): 25 µg/mL (≈ 65 µM)
MIC ([10]; ATCC6538, S. aureus ATCC 6538, 30° C., 24 hours): 12.5 µg/mL (≈ 32.5 µM)
MIC ([11]; ATCC12228, S. epidermidis ATCC 12228, 30° C., 24 hours): 12.5 µg/mL (≈ 32.5 µM)

CCCCCCCCCCCC[N+](C)(C)C.[Cl-] [Comp. 11, Dodecyltrimethylammonium chloride]
MIC [1]: 1000 µg/mL
MIC ([2]; ATCC25416, 24 h): 1000 µg/mL
MIC ([3]; ATCC10231, 24 h): 200 µg/mL
MIC ([4]; ATCC33028, 24 h): 500 µg/mL
MIC ([5]; ATCC8739, 24 h): 200 µg/mL
MIC ([6]; ATCC13883, 24 h): 500 µg/mL
MIC ([7]; ATCC15442, 24 h): 500 µg/mL
MIC ([8]; ATCC9027, 24 h): 500 µg/mL
MIC ([9]; ATCC49128, 24 h): 500 µg/mL
MIC ([10]; ATCC6538, 24 h): 200 µg/mL
MIC ([11]; ATCC12228, 24 h): 100 µg/mL
